Measurements reported in patent publication US20050090485A1, “7-Arylsulfonamido-2,3,4,5-tetrahydro-1h-benzo'diazepine derivatives with 5ht6 receptor affinity for the reatment of cns disorders” (priority 2002, published 2005).

Key:
[1] = molecular target: T1, human cloned 5-HT6 receptors (Homo sapiens, UniProt P50406); assay: 5-HT6 receptor affinity, procedures outlined in WO98/27081; assay type: binding; conditions: read-out: pKi values at human cloned 5-HT6 receptors (converted)
T1 construct: expressed in transfected cells
T1 sequence (P50406 whole entry): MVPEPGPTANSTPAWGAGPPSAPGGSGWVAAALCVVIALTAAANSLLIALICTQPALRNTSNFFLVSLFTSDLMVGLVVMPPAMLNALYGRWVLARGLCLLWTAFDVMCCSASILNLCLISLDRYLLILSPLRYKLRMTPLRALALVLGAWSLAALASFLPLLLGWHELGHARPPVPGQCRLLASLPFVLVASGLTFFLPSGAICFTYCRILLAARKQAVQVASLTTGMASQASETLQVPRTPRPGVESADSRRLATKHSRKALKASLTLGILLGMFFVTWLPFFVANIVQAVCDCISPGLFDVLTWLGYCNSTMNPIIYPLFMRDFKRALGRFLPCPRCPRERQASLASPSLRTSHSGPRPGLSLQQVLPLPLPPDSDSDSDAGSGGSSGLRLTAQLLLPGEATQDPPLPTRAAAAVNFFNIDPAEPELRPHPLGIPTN
Description: Compounds can be tested following the procedures outlined in WO98/27081.

Structure (SMILES) | melting point [°C] | Ki [1] [nM]
Cl.O=S(=O)(Nc1ccc2c(c1)CCNCC2)c1ccc(Br)cc1OC(F)(F)F [Example E11, 7-(4Bromo-2-trifluoromethoxy)phenylsulfonamido-2,3,4,5-tetrahydro-1H-benzo[d]azepine, hydrochloride] | 231 to 233 | –
O=S(=O)(Nc1ccc2c(c1)CCNCC2)c1ccc(Br)cc1OC(F)(F)F [Example E6, 7-(4-Bromo-2-trifuoromethoxy)phenylsulfonamido-2,3,4,5-tetrahydro-1H-benzo[d]azepine] | – | < 3.16
O=S(=O)(Nc1ccc2c(c1)CCNCC2)c1ccc(Cl)cc1OC(F)(F)F [Example E10, 7(4-Chloro-2-trifluoromethoxy)phenylsulfonamido-2,3,5-tetrahydro-1H-benzo[d]azepine] | – | < 3.16
Cl.O=S(=O)(Nc1ccc2c(c1)CCNCC2)c1ccc(Cl)cc1OC(F)(F)F [Example E12, 7-(4-Chloro-2-trifluoromethoxy)phenylsulfonamido-2,3,4,5-tetrahydro-1H-benzo[d]azepine, hydrochloride] | 210 to 211 | –
